Data on 1 molecule can be found in patent US6969507B2, “Imaging sexual response” (Epix Pharmaceuticals, Inc., priority 1999, dated 2005).

The structures appear in SMILES notation.

This data set in a line: Dynamic MS-325 contrast-enhanced MRI of the genitalia/perineum during neutral and erotic video. Particulars: eight healthy women; 0.05 or 0.02 mmol/kg intravenous. In kind it is in vivo, human. As for the experimental part:
Imaging of the genitalia was performed in four pre-menopausal and four post-menopausal healthy, sexually functional women subjects after administration of MS-325 (MS-325, EPIX Medical, Inc.). All volunteers signed an IRB-approved informed consent form for the study.
Six of the subjects received an intravenous injection of 0.05 mmol/kg of MS-325 and two received an intravenous injection of 0.02 mmol/kg of MS-325. Dynamic MRI (3D SPGR, 11/1.7/35°) of the perineum was performed on all subjects while they viewed videos containing first neutral material, then erotic material and finally neutral material via a fiberoptic audiovideo system. Each segment of neutral or erotic material was up to 15 minutes in length. Subjects also filled out questionnaires in response to the videos that had them subjectively rate their degree of sexual arousal.
Serial imaging was performed at least every 3 minutes, beginning just prior to contrast injection and continuing up to 45 minutes post injection. […] Clitoral volume was measured at each time point. Relative regional blood volume was determined from signal intensity versus time curves and compared with subjective measures of arousal.
In these studies, MRI was compared with vaginal photoplethysmography to confirm that MRI accurately assessed the vascular component of the arousal response.

Regarding `O=C([O-])CN(CCN(CC(=O)[O-])C[C@H](COP(=O)([O-])OC1CCC(c2ccccc2)(c2ccccc2)CC1)N(CC(=O)[O-])CC(=O)[O-])CC(=O)[O-].[Gd+3].[H+].[H+].[H+]` [MS-325], the “tolerability of the procedure (contrast injection and MRI)” value is reported as “tolerated”.
